# Laboratory results as given in patent US20070275967A1, “Pyrazolinols” (BAYER CROPSCIENCE AKTIENGESELLSCHAFT, priority 2003, published 2007).
# Legend:
# [1] = logP determination by HPLC on reversed-phase column (EEC Directive 79/831 Annex V.A8); assay type: physicochemical; details: acidic range (pH 2.3), marked a), 0.1% aqueous phosphoric acid/acetonitrile gradient, reversed-phase C 18, 43° C.; for chromatographic logP: reversed-phase C18 HPLC column
# Description: The logP values given in the table were determined in accordance with EEC Directive 79/831 Annex V.A8 by HPLC (High Performance Liquid Chromatography) on a reversed-phase column (C 18). Temperature: 43° C. (a) Mobile phases for the determination in the acidic range (pH 2.3): 0.1% aqueous phosphoric acid, acetonitrile; linear gradient from 10% acetonitrile to 90% acetonitrile—the corresponding measurement results in table 1 are marked a). (b) Mobile phases for the determination in the neutral range (pH 7.5): 0.01-molar aqueous phosphate buffer solution, acetonitrile; linear gradient from 10% acetonitrile to 90% acetonitrile—the corresponding measurement results in table 1 are marked b). Calibration was carried out using unbranched alkan-2-ones (having 3 to 16 carbon atoms) with known logP values (determination of the logP values by the retention times using linear interpolation between two successive alkanones).
# [2] = system: greenhouse red spidermite (Tetranychus urticae); test: Tetranychus test (OP-resistant/spray treatment); assay type: in vivo; details: for pest or weed control at 100 g/ha / pest or weed control at 500 g/ha: Tetranychus urticae, 120 h, after 5 d, OP-resistant, spray treatment, read-out: Kill rate in % after 5 d; for pest or weed control at 100 g/ha: active compound concentration 100 g/ha; for activity (kill of spidermites): bean leaf disks infested by all stages of Tetranychus urticae (OP-resistant), sprayed, result in words; for pest or weed control at 500 g/ha: active compound concentration 500 g/ha
# Description: Tetranychus Test (OP-Resistant/Spray Treatment)
# To produce a suitable preparation of active compound, 1 part by weight of active compound is mixed with the stated amounts of solvents and emulsifier, and the concentrate is diluted with emulsifier-containing water to the desired concentration.
# Disks of bean leaves (Phaseolus vulgaris) which are infested by all stages of the greenhouse red spidermite (Tetranychus urticae) are sprayed with a preparation of active compound of the desired concentration.
# After the desired period of time, the activity in % is determined. 100% means that all spidermites have been killed; 0% means that none of the spidermites have been killed.
# [3] = system: larvae of the mustard beetle (Phaedon cochleariae); test: Phaedon test (spray treatment); assay type: in vivo; details: for activity (kill of beetle larvae): Chinese cabbage disks sprayed, populated with Phaedon cochleariae larvae, result in words; for pest or weed control at 100 g/ha / pest or weed control at 500 g/ha: Phaedon cochleariae, 168 h, after 7 d, spray treatment, read-out: Kill rate in % after 7 d; for pest or weed control at 100 g/ha: active compound concentration 100 g/ha; for pest or weed control at 500 g/ha: active compound concentration 500 g/ha
# Description: Phaedon Test (Spray Treatment) [table] To produce a suitable preparation of active compound, 1 part by weight of active compound is mixed with the stated amounts of solvents and emulsifier, and the concentrate is diluted with emulsifier-containing water to the desired concentration. Disks of Chinese cabbage (Brassica pekinensis) are sprayed with a preparation of active compound of the desired concentration and, once they have dried, populated with larvae of the mustard beetle (Phaedon cochleariae). After the desired period of time, the activity in % is determined. 100% means that all beetle larvae have been killed; 0% means that none of the beetle larvae have been killed.
# [4] = system: caterpillars of the armyworm (Spodoptera frugiperda); test: Spodoptera frugiperda test (spray treatment); assay type: in vivo; details: for pest or weed control at 100 g/ha / pest or weed control at 500 g/ha: Spodoptera frugiperda, 168 h, after 7 d, spray treatment, read-out: Kill rate in % after 7 d; for pest or weed control at 100 g/ha: active compound concentration 100 g/ha; for activity (kill of caterpillars): corn leaf disks sprayed, populated with Spodoptera frugiperda caterpillars, result in words; for pest or weed control at 500 g/ha: active compound concentration 500 g/ha
# Description: Spodoptera Frugiperda Test (Spray Treatment) [table] To produce a suitable preparation of active compound, 1 part by weight of active compound is mixed with, the stated amounts of solvents and emulsifier, and the concentrate is diluted with emulsifier-containing water to the desired concentration. Disks of corn leaves (Zea mays) are sprayed with a preparation of active compound of the desired concentration and, after they have dried, populated with caterpillars of the armyworm (Spodoptera frugiperda). After the desired period of time, the activity in % is determined. 100% means that all caterpillars have been killed; 0% means that none of the caterpillars have been killed.
smiles,measurement,setting,value
CC1=NN(C(=S)Nc2ccc(Cl)cc2Cl)C(O)(C(F)(F)F)C1 (centres unmarked) [Example 118],chromatographic logP,[1],3.97
same,pest or weed control at 100 g/ha,[2],90%
same,activity (kill of spidermites),[2],good activity
CC(C)(C)C1=NN(C(=S)Nc2ccc(Cl)cc2)C(O)(C(F)(F)F)C1 (centres unmarked) [Example 74],chromatographic logP,[1],4.75
same,activity (kill of beetle larvae),[3],good activity
same,pest or weed control at 100 g/ha,[3],100%
same,pest or weed control at 100 g/ha,[4],100%
same,activity (kill of caterpillars),[4],good activity
same,pest or weed control at 100 g/ha,[2],100%
same,activity (kill of spidermites),[2],good activity
CC(C)(C)C1=NN(C(=S)Nc2ccccc2)C(O)(C(F)(F)F)C1 (centres unmarked) [Example 63],chromatographic logP,[1],4.26
same,activity (kill of beetle larvae),[3],good activity
same,pest or weed control at 100 g/ha,[3],100%
same,pest or weed control at 100 g/ha,[4],100%
same,activity (kill of caterpillars),[4],good activity
CCC1=NN(C(=S)NCc2ccccc2F)C(O)(C(F)(F)F)C1 (centres unmarked) [Example 55],chromatographic logP,[1],3.88
same,activity (kill of beetle larvae),[3],good activity
same,pest or weed control at 500 g/ha,[3],100%
same,pest or weed control at 500 g/ha,[4],100%
same,activity (kill of caterpillars),[4],good activity
same,pest or weed control at 100 g/ha,[2],90%
same,activity (kill of spidermites),[2],good activity
CC(C)C1=NN(C(=S)NC2CCCCC2)C(O)(C(F)(F)F)C1 (centres unmarked) [Example 44],chromatographic logP,[1],4.94
same,activity (kill of beetle larvae),[3],good activity
same,pest or weed control at 500 g/ha,[3],100%
same,pest or weed control at 500 g/ha,[4],100%
same,activity (kill of caterpillars),[4],good activity
same,pest or weed control at 500 g/ha,[2],90%
same,activity (kill of spidermites),[2],good activity
CC(C)(C)C1=NN(C(=S)NC2CCCCC2)C(O)(C(F)(F)F)C1 (centres unmarked) [Example 73],activity (kill of beetle larvae),[3],good activity
same,pest or weed control at 100 g/ha,[3],100%
same,pest or weed control at 100 g/ha,[4],100%
same,activity (kill of caterpillars),[4],good activity
CC1=NN(C(=S)NCCc2ccc(Cl)cc2)C(O)(C(F)(F)F)C1 (centres unmarked) [Example 126],chromatographic logP,[1],4.24
same,pest or weed control at 100 g/ha,[2],90%
same,activity (kill of spidermites),[2],good activity
Cc1ccccc1NC(=S)N1N=C(C(C)C)CC1(O)C(F)(F)F (centres unmarked) [Example 32],chromatographic logP,[1],4.1
same,activity (kill of beetle larvae),[3],good activity
same,pest or weed control at 500 g/ha,[3],100%
same,pest or weed control at 500 g/ha,[4],100%
same,activity (kill of caterpillars),[4],good activity
OC1(C(F)(F)F)CC(c2ccccc2)=NN1C(=S)Nc1ccc(Cl)cc1 (centres unmarked) [Example 83],chromatographic logP,[1],4.58
same,pest or weed control at 500 g/ha,[4],100%
same,activity (kill of caterpillars),[4],good activity
CC(C)(C)C1=NN(C(=S)Nc2ccc(Cl)cc2)C(O)(C(F)F)C1 (centres unmarked) [Example 142],logP,[1],logP = 4.50^a)
CC1=NN(C(=S)Nc2ccc(F)cc2)C(O)(C(F)(F)F)C1 (centres unmarked) [Example 110],logP,[1],logP = 2.06^a)
CC(C)CC1=NN(C(=O)Nc2ccc(Cl)c(Cl)c2)C(O)(C(F)(F)F)C1 (racemic) [Example 4],logP,[1],logP = 4.63^a)
CC(C)C1=NN(C(=O)Nc2cccnc2)C(O)(C(F)(F)F)C1 (racemic) [Example 47],logP,[1],logP = 1.15^a)
CC(C)(C)C1=NN(C(=O)NCc2ccc(Cl)cc2)C(O)(C(F)(F)F)C1 (centres unmarked) [Example 71],logP,[1],logP = 3.94^a)
CC1=NN(C(=S)Nc2ccc(OC(F)(F)F)cc2)C(O)(C(F)(F)F)C1 (centres unmarked) [Example 106],chromatographic logP,[1],3.37
same,pest or weed control at 100 g/ha,[2],100%
same,activity (kill of spidermites),[2],good activity
CCC1=NN(C(=S)NCc2ccccc2Cl)C(O)(C(F)(F)F)C1 (centres unmarked) [Example 56],chromatographic logP,[1],4.25
same,activity (kill of beetle larvae),[3],good activity
same,pest or weed control at 500 g/ha,[3],100%
same,pest or weed control at 100 g/ha,[2],90%
same,activity (kill of spidermites),[2],good activity
CCC1=NN(C(=O)Nc2ccccc2)C(O)(C(F)(F)F)C1 (racemic) [Example 39],logP,[1],logP = 2.91^a)
CCC1=NN(C(=S)Nc2ccc(F)cc2)C(O)(C(F)(F)F)C1 (centres unmarked) [Example 93],logP,[1],logP = 3.62^a)
COc1ccccc1NC(=S)N1N=C(C(C)C)CC1(O)C(F)(F)F (centres unmarked) [Example 30],chromatographic logP,[1],4.23
same,activity (kill of beetle larvae),[3],good activity
same,pest or weed control at 500 g/ha,[3],100%
same,pest or weed control at 500 g/ha,[2],90%
same,activity (kill of spidermites),[2],good activity
CC1=NN(C(=S)Nc2cc(C(F)(F)F)ccc2Cl)C(O)(C(F)(F)F)C1 (centres unmarked) [Example 107],logP,[1],logP = 3.94^a)
CC(C)CC1=NN(C(=O)Nc2ccc(Cl)cc2)C(O)(C(F)(F)F)C1 (racemic) [Example 5],logP,[1],logP = 4.18^a)
CC(C)C1=NN(C(N)=S)C(O)(C(F)(F)F)C1 (racemic) [Example 45],logP,[1],logP = 2.47^a)
CC1=NN(C(=S)NCc2ccccc2F)C(O)(C(F)(F)F)C1 (centres unmarked) [Example 124],logP,[1],logP = 3.53^a)
CCC1=NN(C(=S)Nc2ccc(Cl)c(Cl)c2)C(O)(C(F)(F)F)C1 (centres unmarked) [Example 96],logP,[1],logP = 4.61^a)
CCC1=NN(C(=S)Nc2ccc(Cl)cc2)C(O)(C(F)(F)F)C1 (centres unmarked) [Example 53],chromatographic logP,[1],4.07
same,activity (kill of beetle larvae),[3],good activity
same,pest or weed control at 500 g/ha,[3],100%
CC(C)(C)C1=NN(C(=O)Nc2ccc(Cl)cc2)C(O)(C(F)F)C1 (centres unmarked) [Example 144],logP,[1],logP = 3.72^a)
CC(C)(C)C1=NN(C(=S)Nc2ccc(OC(F)(F)F)cc2)C(O)(C(F)(F)F)C1 (centres unmarked) [Example 64],chromatographic logP,[1],4.94
same,activity (kill of beetle larvae),[3],good activity
same,pest or weed control at 100 g/ha,[3],100%
same,pest or weed control at 100 g/ha,[4],100%
same,activity (kill of caterpillars),[4],good activity
CC(C)CC1=NN(C(=S)Nc2ccccc2F)C(O)(C(F)(F)F)C1 (racemic) [Example 11],logP,[1],logP = 4.23^a)
CCC1=NN(C(=S)Nc2c(F)cc(F)cc2F)C(O)(C(F)(F)F)C1 (centres unmarked) [Example 89],logP,[1],logP = 3.52^a)
CCC1=NN(C(=O)Nc2cc(Cl)cc(Cl)c2)C(O)(C(F)(F)F)C1 (centres unmarked) [Example 76],logP,[1],logP = 4.34^a)
OC1(C(F)(F)F)CC(C2(Cl)CC2)=NN1C(=S)Nc1ccc(Cl)cc1 (centres unmarked) [Example 79],logP,[1],logP = 4.36^a)
CCC1=NN(C(=O)Nc2ccc(Cl)cc2)C(O)(C(F)(F)F)C1 (racemic) [Example 49],logP,[1],logP = 3.43^a)
CCC1=NN(C(=S)Nc2ccc(Cl)cc2Cl)C(O)(C(F)(F)F)C1 (centres unmarked) [Example 57],logP,[1],logP = 4.53^a)
CCC1=NN(C(=S)Nc2ccc(C(C)(C)C)cc2)C(O)(C(F)(F)F)C1 (racemic) [Example 16],logP,[1],logP = 4.84^a)
O=C(Nc1ccc(OC(F)(F)F)cc1)N1N=C(C2(Cl)CC2)CC1(O)C(F)(F)F (centres unmarked) [Example 52],logP,[1],logP = 4.07^a)
OC1(C(F)(F)F)CC(c2ccco2)=NN1C(=S)Nc1ccc(Cl)cc1 (centres unmarked) [Example 81],logP,[1],logP = 3.99^a)
CC1=NN(C(=S)NCc2ccccc2Cl)C(O)(C(F)(F)F)C1 (centres unmarked) [Example 125],logP,[1],logP = 3.87^a)
CCC1=NN(C(=S)Nc2cccc(F)c2)C(O)(C(F)(F)F)C1 (centres unmarked) [Example 94],logP,[1],logP = 3.71^a)
CC1=NN(C(=S)Nc2ccc(OC(F)(F)F)cc2)C(O)(C(F)(F)F)C1 (centres unmarked) [Example 112],logP,[1],logP = 3.89^a)
CC1=NN(C(=S)Nc2ccccc2F)C(O)(C(F)(F)F)C1 (centres unmarked) [Example 120],logP,[1],logP = 3.05^a)
CC(C)CC1=NN(C(=S)Nc2ccc(OC(F)(F)F)cc2)C(O)(C(F)(F)F)C1 (centres unmarked) [Example 22],chromatographic logP,[1],4.42
same,pest or weed control at 500 g/ha,[2],90%
same,activity (kill of spidermites),[2],good activity
CCC1=NN(C(=O)Nc2ccc(F)cc2)C(O)(C(F)(F)F)C1 (centres unmarked) [Example 50],logP,[1],logP = 2.96^a)
